Numbers after ± are expanded uncertainties.
Assay: molar heat capacity at constant pressure; xn = mol fraction of the nth substance listed
Settings: 101 kPa, Small sample (50 mg) DSC

CC(O)CN (stereo unspecified) [1-amino-2-propanol] + O
Settings | molar heat capacity at constant pressure [J/K/mol]
155.68 K, Glass, x1 = 0.15 | 35.88 ± 7.2
155.68 K, Glass, x1 = 0.16 | 37.74 ± 7.6
155.68 K, Glass, x1 = 0.19 | 36.94 ± 7.5
155.68 K, Glass, x1 = 0.26 | 40.42 ± 8.2
155.84 K, Glass, x1 = 0.68 | 59.11 ± 12
160.38 K, Glass, x1 = 0.16 | 40.45 ± 8.1
160.38 K, Glass, x1 = 0.19 | 38.97 ± 7.8
160.38 K, Glass, x1 = 0.26 | 42.39 ± 8.5
160.4 K, Glass, x1 = 0.15 | 39.07 ± 7.7
160.41 K, Glass, x1 = 0.19 | 35.79 ± 1.4
160.41 K, Glass, x1 = 0.26 | 41.07 ± 1.6
160.54 K, Glass, x1 = 0.68 | 60.82 ± 12
160.55 K, Glass, x1 = 0.15 | 35.88 ± 1.6
160.56 K, Glass, x1 = 0.16 | 34.48 ± 1.4
160.57 K, Glass, x1 = 0.68 | 63.09 ± 2.8
163.7 K, Glass, x1 = 0.19 | 36.66 ± 1.4
163.7 K, Glass, x1 = 0.26 | 42.39 ± 2
163.84 K, Glass, x1 = 0.15 | 37.74 ± 1.6
163.85 K, Glass, x1 = 0.16 | 35.57 ± 1.6
163.85 K, Glass, x1 = 0.68 | 64.8 ± 2.8
165.08 K, Glass, x1 = 0.19 | 42.72 ± 8.7
165.08 K, Glass, x1 = 0.26 | 45.68 ± 9.2
165.25 K, Glass, x1 = 0.68 | 64.8 ± 13
170.29 K, Glass, x1 = 0.19 | 40.7 ± 1.7
170.3 K, Glass, x1 = 0.26 | 46 ± 2
170.45 K, Glass, x1 = 0.68 | 68.21 ± 2.8
173.75 K, Glass, x1 = 0.68 | 73.89 ± 3.4
183.93 K, Liquid, x1 = 0.26 | 85.44 ± 17
184.09 K, Liquid, x1 = 0.68 | 124.48 ± 25
188.66 K, Liquid, x1 = 0.26 | 85.11 ± 17
188.82 K, Liquid, x1 = 0.68 | 125.62 ± 25
190.11 K, Liquid, x1 = 0.19 | 83.13 ± 3.5
190.11 K, Liquid, x1 = 0.26 | 88.06 ± 3.6
190.26 K, Liquid, x1 = 0.15 | 76.81 ± 3.2
190.26 K, Liquid, x1 = 0.68 | 135.28 ± 5.7
190.27 K, Liquid, x1 = 0.16 | 77.92 ± 3.3
193.38 K, Liquid, x1 = 0.26 | 84.78 ± 17
193.42 K, Liquid, x1 = 0.19 | 81.97 ± 3.5
193.42 K, Liquid, x1 = 0.26 | 87.74 ± 3.6
193.54 K, Liquid, x1 = 0.68 | 126.75 ± 26
193.57 K, Liquid, x1 = 0.15 | 76.28 ± 3.2
193.58 K, Liquid, x1 = 0.16 | 77.11 ± 3.3
193.58 K, Liquid, x1 = 0.68 | 135.28 ± 5.7
198.11 K, Liquid, x1 = 0.16 | 79.01 ± 16
198.11 K, Liquid, x1 = 0.26 | 84.78 ± 17
198.13 K, Liquid, x1 = 0.15 | 73.89 ± 15
198.27 K, Liquid, x1 = 0.68 | 126.75 ± 26
200.05 K, Liquid, x1 = 0.19 | 80.53 ± 3.5
200.05 K, Liquid, x1 = 0.26 | 87.74 ± 3.6
200.19 K, Liquid, x1 = 0.15 | 76.02 ± 3.2
200.19 K, Liquid, x1 = 0.68 | 136.41 ± 5.7
200.2 K, Liquid, x1 = 0.16 | 76.29 ± 3.3
202.84 K, Liquid, x1 = 0.19 | 80.53 ± 16
202.84 K, Liquid, x1 = 0.26 | 85.44 ± 17
202.85 K, Liquid, x1 = 0.16 | 79.28 ± 16
202.87 K, Liquid, x1 = 0.15 | 74.69 ± 15
203 K, Liquid, x1 = 0.68 | 126.75 ± 26
203.35 K, Liquid, x1 = 0.19 | 80.24 ± 3.5
203.36 K, Liquid, x1 = 0.26 | 88.06 ± 3.6
203.5 K, Liquid, x1 = 0.15 | 75.75 ± 3.2
203.5 K, Liquid, x1 = 0.68 | 136.98 ± 5.7
203.51 K, Liquid, x1 = 0.16 | 76.29 ± 3.3
207.57 K, Liquid, x1 = 0.19 | 80.82 ± 16
207.57 K, Liquid, x1 = 0.26 | 86.42 ± 17
207.58 K, Liquid, x1 = 0.16 | 79.82 ± 16
207.6 K, Liquid, x1 = 0.15 | 75.49 ± 15

Reference: the NIST ThermoML archive (doi:10.1016/j.tca.2015.02.020)
